Entries after “also recorded” stand apart in the source; their conditions may differ. Counter-ions that a name gives are not always drawn. Where only a bound is given, the exact number is not on record here.

For assay [1], the target named is T1, β1-adrenoreceptor (Cavia porcellus, UniProt H0W3H1).
T1 construct: the hearts were excised and placed in ice-cold oxygenated Krebs Ringer buffer; tissue Charles River Laboratories (animals); host or cells: guinea pig atria (right and left, paired)
Put plainly: In vitro bioassay for β1-adrenergic activity (atrial rate). Particulars: guinea pig atria, 37° C., pH=7.4, approximately four atrial preparations per compound. It is filed as biochemical. As to the method: (§1) In Vitro Bioassays for β1 -, β2 - and α-Adrenoreceptor Activity
(§2) Functional evaluation of β1 -, β2 - and α-adrenoreceptor activity was performed using in vitro preparations of guinea pig atria, guinea pig trachea, and rabbit aorta, respectively (Young, et. al, Drug Dev. Res. 1994, 32, 19-28).
For the atrial assay of β1 -adrenergic activity, male Hartley guinea pigs (350-500 g; Charles River Laboratories, Wilmington, Mass.) were sacrificed by decapitation and the hearts were excised and placed in ice-cold oxygenated Krebs Ringer buffer. The atria were separated from the ventricles, leaving the right and left atria attached as a pair. A suture was placed at the apex of each atrial appendage for securing the tissue within the organ bath. The water-jacketed 25-ml organ baths were maintained at 37° C. and filled with Krebs Ringer solution aerated with 95% O2 and 5% CO2. The atrial pairs were equilibrated for at least 20 min after application of 1 g resting tension. β1 -adrenergic activity was assessed using atrial rate (beats per min) and amplitude of contraction (g tension) which were monitored at 1 and 5 min after dosing. Concentration-response curves (10^-11 -10^-4 M) were obtained by cumulative addition of drug to the bath. Following the completion of the dose response curves, isoproterenol was added to assess maximal response of each atrial preparation. EC50 values were calculated from the rate results of approximately four atrial preparations per compound.
(§3) In all experiments, tension was measured by isometric force transducers (52-9529, Harvard Apparatus, Natick, Mass.) coupled to an ink-writing recorder (Gould, Cleveland Ohio). The Krebs Ringer solution contained the following ingredients (mM): NaCl (118.1), NaHCO3 (25.0), D-glucose (11.1), KH2 PO4 (1.2), KCl (4.8), MgSO4 (1.2), CaCl2 (2.5), pH=7.4.

Assay [2] deals with α-adrenoreceptor. The assay is described as follows: In vitro bioassay for α-adrenergic activity (contraction of aortic rings). It is filed as biochemical. Particulars: rabbit aortic rings, propranolol pretreated, 37° C., pH=7.4, read-out: α (aorta). As to the method:
as §1, §2
For evaluation of α-adrenergic activity, male New Zealand white rabbits (2.5 kg) (Simunek Rabbitry, Vista, Calif.) were sacrificed by carbon dioxide inhalation and the thoracic aorta was quickly excised and placed in Krebs Ringer solution. The aorta was cut into 3-mm rings which were subsequently suspended on hooks in organ baths. The 2.5-ml water-jacketed baths were maintained at 37° C. and filled with Krebs Ringer solution aerated with 95% O2 and 5% CO2. The vascular rings were equilibrated for 1 h following the application of a resting tension of 4 g, during which time the buffer was changed at 15-min intervals. All rings were pretreated with propranolol ([…]) 10 min prior to addition of test compounds. Concentration-response curves were obtained by cumulative addition of compound to the organ bath, the concentration being increased only after maximal response to the preceding concentration was attained. After the final response was attained for each test drug, norepinephrine ([…]) was added to assess maximal contraction. Responses are expressed as a percent of the maximal contraction by norepinephrine.
as §3

Assay [3] concerns the target T2, β2-adrenoreceptor (Cavia porcellus, UniProt Q8K4Z4).
T2 construct: the trachea was gently excised and placed in ice-cold aerated Krebs Ringer solution; from tissue; host or cells: guinea pig tracheal rings
The assay is described as follows: In vitro bioassay for β2-adrenergic activity (relaxation of precontracted tracheal rings). It is filed as biochemical. Particulars: guinea pig tracheal rings precontracted with carbachol, 37° C., pH=7.4, read-out: β2 (trachea). The method, then:
as §1, §2
For the tracheal assay of β2 -adrenergic activity, male Hartley guinea pigs (350-500 g) were sacrificed by carbon dioxide inhalation and the trachea was gently excised and placed in ice-cold aerated Krebs Ringer solution. β2 -adrenergic activity was assessed as the relaxation of rings following precontraction with carbachol. The trachea were cut into transverse rings containing two cartilage segments, and sutures were tied onto the cartilage on either side of the band of smooth muscle of each ring. The sutures were used to mount the individual rings in a 2.5-ml organ bath and to measure tension with an isometric force transducer. The water-jacketed organ baths maintained the preparation at 37° C. and were filled with Krebs Ringer solution aerated with 95% O2 and 5% CO2. The tracheal rings were equilibrated for 1 h following the application of 0.5 g resting tension. In some cases, equilibrated rings were then treated with the α2 -antagonist rauwolscine ([…]) and the β1 -antagonist atenolol ([…]) prior to precontraction with carbachol ([…]). Precontracted rings used as controls received treatments of saline only. Concentration-response curves were obtained by cumulative addition of drug to the organ bath, the concentration being increased only after the maximal relaxation to the preceding concentration was attained. After the final response was attained, isoproterenol ([…]) was added to assess maximal response for each preparation.
as §3

For assay [4], the system named is heart rate (chronotropic response). The assay is described as follows: Pharmacodynamics in conscious dogs during i.v. administration (chronotropic response and offset). In kind it is in vivo, dog. As to the method:
[…] The T50 s were measured from end of infusion.
Pharmacodynamics in conscious dogs during i.v. administration
Dogs were trained to lie quietly on a table. Novel catecholamine compounds were administered via a venous catheter acutely placed in a leg vein. […] Heart rate was recorded by computer from ECG limb leads at 5 second intervals throughout the experiment. […]

For assay [5], the system named is heart rate. The assay is described as follows: Pharmacodynamics in conscious dogs during transdermal iontophoretic administration. In kind it is in vivo, dog. Particulars: 10 min. As to the method: Pharmacodynamics in conscious dogs during transdermal iontophoretic administration
Dogs were trained to lie quietly on a table. Heart rate was monitored by ECG limb leads. Novel catecholamines were administered from a gel-filled electrode placed on the surface of the skin. A second electrode was placed on the skin to complete the electrical circuit. All compounds were delivered using a current of 0.25 mA for a period of 10 minutes. Heart rate was monitored by the ECG, and the T50 of the compound was measured as the time after termination of current required for heart rate to return 50% toward baseline rate. A "delay" time was also measured as the time required for heart rate to begin to fall, following termination of current.

The mark [6] stands for this setting: Table I, i.v., measured from end of infusion at highest dose 100 ng/kg/min.
The mark [7] stands for this setting: Table I, stable increase over baseline at highest dose (100 ng/kg/min i.v.), ascending doses.
Where [8] appears, read: iontophoresis 0.25 mA, concentration (mM): isoproterenol 2.5, arbutamine 20, Ex 4 2, Ex 1 3, Ex 11 12, Ex 9 8, Ex 6 8.
[9] abbreviates: Example 13, i.v., dose reached 300 ng/kg/min.
[10] abbreviates: Example 13, i.v. stepwise ascending doses up to 100 ng/kg/min.
Where [11] appears, read: Example 13, i.v., from termination of infusion (100 ng/kg/min) to 50% fall in heart rate towards baseline.

T2 sequence (Q8K4Z4 whole entry): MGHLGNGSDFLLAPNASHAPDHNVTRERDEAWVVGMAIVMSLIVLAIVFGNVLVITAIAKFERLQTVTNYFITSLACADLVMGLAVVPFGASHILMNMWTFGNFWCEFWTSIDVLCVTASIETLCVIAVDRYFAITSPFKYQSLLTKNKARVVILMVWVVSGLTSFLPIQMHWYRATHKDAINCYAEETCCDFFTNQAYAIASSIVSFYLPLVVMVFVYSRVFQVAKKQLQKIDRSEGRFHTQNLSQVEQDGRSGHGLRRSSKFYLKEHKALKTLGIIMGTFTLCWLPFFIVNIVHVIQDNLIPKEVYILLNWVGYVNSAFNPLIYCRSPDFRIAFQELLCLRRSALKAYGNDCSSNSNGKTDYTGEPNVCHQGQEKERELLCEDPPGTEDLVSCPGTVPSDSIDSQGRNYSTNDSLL
T1 sequence (H0W3H1 1-470): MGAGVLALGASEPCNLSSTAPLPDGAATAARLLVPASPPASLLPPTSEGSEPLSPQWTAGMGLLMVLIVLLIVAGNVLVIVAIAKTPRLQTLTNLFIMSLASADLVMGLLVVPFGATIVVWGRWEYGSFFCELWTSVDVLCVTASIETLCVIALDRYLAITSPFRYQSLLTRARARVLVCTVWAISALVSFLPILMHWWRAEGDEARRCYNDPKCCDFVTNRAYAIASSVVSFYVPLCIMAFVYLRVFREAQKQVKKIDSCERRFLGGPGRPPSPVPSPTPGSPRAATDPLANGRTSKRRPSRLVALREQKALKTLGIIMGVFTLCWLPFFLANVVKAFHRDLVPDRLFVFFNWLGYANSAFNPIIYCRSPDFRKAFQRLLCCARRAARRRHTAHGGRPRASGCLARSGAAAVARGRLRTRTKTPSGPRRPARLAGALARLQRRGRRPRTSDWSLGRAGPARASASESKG

As for `C[S+]([O-])CCCCNC[C@H](O)c1ccc(O)c(O)c1` (stereo partly drawn) [Example 7, 1-(R)-(3,4-dihydroxyphenyl)-2-(4-methylsulfinylbutylamino)ethanol], the EC50 in assay [1] was 13.3 ± 1 nM; in assay [2], 5500 ± 456 nM; in assay [3], 245 ± 84.7 nM.

As to `CCSCCCNC[C@H](O)c1ccc(O)c(O)c1` [Example 10, 1-(R)-(3,4-dihydroxyphenyl)-2-(3-ethylthiopropylamino)ethanol], the EC50 in assay [1] is 4.8 ± 0.7 nM; in assay [2], over 10000 nM; in assay [3], 124 ± 13.6 nM.

In assay [4] (setting [6]), `CC(C)NCC(O)c1ccc(O)c(O)c1` (stereo not drawn) [Isoproterenol, reference compound] returned a T50 of 5.5 ± 1.0 min. For the same molecule, the “Δ Heart Rate” value in assay [4] (setting [7]) worked out at 103 ± 12 beats/min. Besides, in assay [5] (setting [8]), the “Delay (time required for heart rate to begin to fall following termination of current)” value (“Delay” below) was determined as 1.2 ± 0.5 min, the “T50 (time after termination of current for heart rate to return 50% toward baseline)” value worked out at 12.2 ± 1.9 min and the “Δ Heart Rate” value is on record as 80 ± 11 beats/min.

On to `CSCCCCNC[C@H](O)c1ccc(O)c(O)c1` [Example 9, 1-(R)-(3,4-dihydroxyphenyl)-2-(4-methylthiobutylamino)ethanol], for which, in assay [4] (setting [9]), the T50 is 3.6 ± 0.34 min and the “Δ Heart Rate” value is 93 ± 6. This molecule displayed an EC50 in assay [1] of 2.9 ± 0.6 nM. For the same molecule, in assay [2], the EC50 was 1400 ± 82 nM. Moreover, in assay [5] (setting [8]), the “Delay” value came to 0.6 ± 0.6 min, the “T50 (time after termination of current for heart rate to return 50% toward baseline)” value is recorded as 9.3 ± 0.5 min and the “Δ Heart Rate” value turned out to be 82 ± 9 beats/min. Further, the EC50 in assay [3] turned out to be 20 ± 3.4 nM.

Consider `COCCCNC[C@H](O)c1ccc(O)c(O)c1` [Example 3, 1-(R)-(3,4-dihydroxyphenyl)-2-(3-methoxy-propylamino)ethanol], for which the values for the EC50 in assay [1], in assay [2] and in assay [3] were 19 ± 5.4 nM, 61300 ± 3820 nM and 21 ± 3 nM, respectively.

Take `N#CCCCNC[C@H](O)c1ccc(O)c(O)c1` [Example 1, 1-(R)-(3,4-dihydroxyphenyl)-2-(3-cyanopropylamino)ethanol]: the “Δ Heart Rate” value in assay [4] (setting [10]) was 109 ± 5; in assay [5] it was 77 ± 1.3 beats/min. The same molecule gave a T50 in assay [4] (setting [11]) of 6.9 ± 0.6 min. Moreover, the EC50 in assay [1] amounted to 4.6 ± 0.7 nM; in assay [2] it was 7500 ± 2840 nM; in assay [3], 4.7 ± 1.2 nM. Also, the “Delay” value in assay [5] (setting [8]) was found to be 1.9 ± 0.5 min. In assay [5] (setting [8]), the “T50 (time after termination of current for heart rate to return 50% toward baseline)” value worked out at 12.4 ± 1.3 min.

Take `CC(CCCC#N)NC[C@H](O)c1ccc(O)c(O)c1` (stereo partly drawn) [Example 2, 1-(R)-(3,4-dihydroxyphenyl)-2-(1-methyl-4-cyanobutylamino)ethanol]: the figures for the EC50 in assay [1], in assay [2] and in assay [3] were 3.4 ± 0.4 nM, 15600 ± 8220 nM and 2.7 ± 0.5 nM, respectively.

For `COCCCC(C)NC[C@H](O)c1ccc(O)c(O)c1` (stereo partly drawn) [Example 5, 1-(R)-(3,4-dihydroxyphenyl)-2-(1-methyl-4-methoxybutylamino)ethanol], the EC50 in assay [1] is 1.5 ± 0.4 nM; in assay [2], 51800 ± 19200 nM; in assay [3], 8.2 ± 1.6 nM.

As for `C[S+]([O-])CCCNC[C@H](O)c1ccc(O)c(O)c1` (stereo partly drawn) [Example 6, 1-(R)-(3,4-dihydroxyphenyl)-2-(3-methylsulfinylpropylamino)ethanol], the “Δ Heart Rate” value came to 93 ± 3 in assay [4] (setting [10]) and 93 ± 6 beats/min in assay [5] (setting [8]). The T50 in assay [4] (setting [11]) is on record as 5.4 ± 1.3 min. In addition, the values for the EC50 in assay [1], in assay [2] and in assay [3] were 14.9 ± 3.6 nM, over 10000 nM and 140 ± 35.3 nM, respectively. The “Delay” value in assay [5] (setting [8]) turned out to be 0.9 ± 0.5 min. For the same molecule, the “T50 (time after termination of current for heart rate to return 50% toward baseline)” value in assay [5] (setting [8]) is listed as 13.6 ± 2.3 min.

Take `CSCCCC(C)NC[C@H](O)c1ccc(O)c(O)c1` (stereo partly drawn) [Example 8, 1-(R)-(3,4-dihydroxyphenyl)-2-(1-methyl-4-methylthiobutylamino)ethanol]: the EC50 in assay [1] is 0.6 ± 0.3 nM; in assay [2] it was 20900 ± 9850 nM; in assay [3], 4.6 ± 0.2 nM.

As to `CSCCCNC[C@H](O)c1ccc(O)c(O)c1` [Example 11, 1-(R)-(3,4-dihydroxyphenyl)-2-(3-methylthiopropylamino)ethanol], the figures for the “Δ Heart Rate” value in assay [4] (setting [10]), in assay [4] (setting [7]) and in assay [5] (setting [8]) were 109 ± 4, 109 ± 4 beats/min and 89 ± 7 beats/min, respectively. Also, the T50 in assay [4] (setting [11]) is listed as 3.6 ± 0.2 min; in assay [4] (setting [6]), 3.6 ± 0.3 min. For the same molecule, in assay [4] (i.v., compared with isoproterenol and arbutamine), the “offset time / T50 (in words)” value was “shorter than for both isoproterenol and arbutamine; also recorded: substantially shorter T50 than isoproterenol and arbutamine”. Also, the “T50 (time required for the chronotropic response to decrease by 50%)” value in assay [4] (oxalate salt, dog studies) amounted to 3.6 min. For the same molecule, the figures for the EC50 in assay [1], in assay [2] and in assay [3] were 9.7 ± 2 nM, 88300 ± 5660 nM and 16 ± 1.2 nM, respectively. In addition, the “Delay” value in assay [5] (setting [8]) was determined as 0.8 ± 0.2 min. In addition, the “T50 (time after termination of current for heart rate to return 50% toward baseline)” value in assay [5] (setting [8]) came to 12.7 ± 3.6 min.

Regarding `Oc1ccc(CCCCNC[C@H](O)c2ccc(O)c(O)c2)cc1` [Arbutamine, reference compound], in assay [4] (setting [6]), the T50 stood at 7.2 ± 1.1 min. For the same molecule, in assay [4] (setting [7]), the “Δ Heart Rate” value is recorded as 84 ± 9 beats/min. In addition, in assay [5] (setting [8]), the “Delay” value is reported as 2.3 ± 1.4 min, the “T50 (time after termination of current for heart rate to return 50% toward baseline)” value came out at 24.8 ± 2.7 min and the “Δ Heart Rate” value worked out at 84 ± 5 beats/min.

On to `CC(CCC[S+](C)[O-])NC[C@H](O)c1ccc(O)c(O)c1` (stereo partly drawn) [*, 1 (R)(3,4-dihyroxyphenyl)-2-(1-methyl-4-methylsulfinylbutylamino) ethano oxalate salt], for which the EC50 in assay [1] is 1.4 ± 0.3 nM; in assay [2] it was 7830 ± 239 nM.
